In patent US10351546B2, “Pyridin-3-yl acetic acid derivatives as inhibitors of human immunodeficiency virus replication” (priority 2015, dated 2019) one finds EC50 data, which are given here for 20 molecules.

In the assay the test system is NL-RLuc virus. The assay is described as follows: Inhibition of HIV replication (NL-RLuc luciferase reporter virus in MT-2 cells). In kind it is cell-based. Conditions: Human immunodeficiency virus 1, MT2, 120 h. A digest of the protocol: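 The read-out is Renilla luciferase expressed by replication-competent NL-RLuc (nef partly replaced), measured 5 days after infection of MT-2 cells grown with compound dilutions in 10% FBS RPMI. Median effect equation gives EC50 from ≥2 runs; A ≤100 nM, B 100 nM–1 uM, C >1 uM.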

Where two headings read alike, the source gives them in different places. Some results are limits rather than exact numbers.

With `Cc1cc(F)ccc1CN1CCc2cc(-c3c(CN(C)C)nc(C)c([C@H](OC(C)(C)C)C(=O)O)c3N3CCC(C)(C)CC3)ccc2C1` [Example 115, (S)-2-(tert-Butoxy)-2-(6-((dimethylamino)methyl)-4-(4,4-dimethylpiperidin-1-yl)-5-(2-(4-fluoro-2-methylbenzyl)-1,2,3,4-tetrahydroisoquinolin-6-yl)-2-methylpyridin-3-yl)acetic acid], the EC50 (read-out: Activity) is less than 0.1 µM.

For the molecule `COCCNCc1nc(C)c([C@H](OC(C)(C)C)C(=O)O)c(N2CCC(C)(C)CC2)c1-c1ccc2c(c1)CCN(Cc1ccc(F)cc1C)C2` [Example 116, (S)-2-(tert-Butoxy)-2-(4-(4,4-dimethylpiperidin-1-yl)-5-(2-(4-fluoro-2-methylbenzyl)-1,2,3,4-tetrahydroisoquinolin-6-yl)-6-(((2-methoxyethyl)amino)methyl)-2-methylpyridin-3-yl)acetic acid], the EC50 (read-out: Activity) is less than 0.1 µM. Take `Cc1cc(F)ccc1CN1CCc2cc(-c3c(CN4CCC4)nc(C)c([C@H](OC(C)(C)C)C(=O)O)c3N3CCC(C)(C)CC3)ccc2C1` [Example 117, (S)-2-(6-(Azetidin-1-ylmethyl)-4-(4,4-dimethylpiperidin-1-yl)-5-(2-(4-fluoro-2-methylbenzyl)-1,2,3,4-tetrahydroisoquinolin-6-yl)-2-methylpyridin-3-yl)-2-(tert-butoxy)acetic acid]: the EC50 (read-out: Activity) was less than 0.1 µM. Take `Cc1cc(F)ccc1CN1CCc2cc(-c3c(CN4CCCC4)nc(C)c([C@H](OC(C)(C)C)C(=O)O)c3N3CCC(C)(C)CC3)ccc2C1` [Example 118, (S)-2-(tert-Butoxy)-2-(4-(4,4-dimethylpiperidin-1-yl)-5-(2-(4-fluoro-2-methylbenzyl)-1,2,3,4-tetrahydroisoquinolin-6-yl)-2-methyl-6-(pyrrolidin-1-ylmethyl)pyridin-3-yl)acetic acid]: the EC50 runs as follows: (read-out: Activity) less than 0.1 µM; (read-out: EC50 μM) 0.002 µM.

On to `Cc1cc(F)ccc1CN1CCc2cc(-c3c(CN4CCCCC4)nc(C)c([C@H](OC(C)(C)C)C(=O)O)c3N3CCC(C)(C)CC3)ccc2C1` [Example 119, (S)-2-(tert-Butoxy)-2-(4-(4,4-dimethylpiperidin-1-yl)-5-(2-(4-fluoro-2-methylbenzyl)-1,2,3,4-tetrahydroisoquinolin-6-yl)-2-methyl-6-(piperidin-1-ylmethyl)pyridin-3-yl)acetic acid], for which the EC50 (read-out: Activity) was less than 0.1 µM. Still for that read-out and setting: then `Cc1cc(F)ccc1CN1CCc2cc(-c3c(CN4CCC(C)(C)CC4)nc(C)c([C@H](OC(C)(C)C)C(=O)O)c3N3CCC(C)(C)CC3)ccc2C1` [Example 120, (S)-2-(tert-Butoxy)-2-(4-(4,4-dimethylpiperidin-1-yl)-6-((4,4-dimethylpiperidin-1-yl)methyl)-5-(2-(4-fluoro-2-methylbenzyl)-1,2,3,4-tetrahydroisoquinolin-6-yl)-2-methylpyridin-3-yl)acetic acid], with less than 0.1 µM; and `Cc1cc(F)ccc1CN1CCc2cc(-c3c(CN4CCOCC4)nc(C)c([C@H](OC(C)(C)C)C(=O)O)c3N3CCC(C)(C)CC3)ccc2C1` [Example 121, (S)-2-(tert-Butoxy)-2-(4-(4,4-dimethylpiperidin-1-yl)-5-(2-(4-fluoro-2-methylbenzyl)-1,2,3,4-tetrahydroisoquinolin-6-yl)-2-methyl-6-(morpholinomethyl)pyridin-3-yl)acetic acid], with less than 0.1 µM. On the same count and under the same terms, then `Cc1cc(F)ccc1CN1CCc2cc(-c3c(CN4CCSCC4)nc(C)c([C@H](OC(C)(C)C)C(=O)O)c3N3CCC(C)(C)CC3)ccc2C1` [Example 122, (S)-2-(tert-Butoxy)-2-(4-(4,4-dimethylpiperidin-1-yl)-5-(2-(4-fluoro-2-methylbenzyl)-1,2,3,4-tetrahydroisoquinolin-6-yl)-2-methyl-6-(thiomorpholinomethyl)pyridin-3-yl)acetic acid], with less than 0.1 µM; and `Cc1cc(F)ccc1CN1CCc2cc(-c3c(CN4CCS(=O)(=O)CC4)nc(C)c([C@H](OC(C)(C)C)C(=O)O)c3N3CCC(C)(C)CC3)ccc2C1` [Example 123, (S)-2-(tert-Butoxy)-2-(4-(4,4-dimethylpiperidin-1-yl)-6-((1,1-dioxidothiomorpholino)methyl)-5-(2-(4-fluoro-2-methylbenzyl)-1,2,3,4-tetrahydroisoquinolin-6-yl)-2-methylpyridin-3-yl)acetic acid], with less than 0.1 µM; and `Cc1cc(F)ccc1CN1CCc2cc(-c3c(CNCc4ccncc4)nc(C)c([C@H](OC(C)(C)C)C(=O)O)c3N3CCC(C)(C)CC3)ccc2C1` [Example 124, (S)-2-(tert-Butoxy)-2-(4-(4,4-dimethylpiperidin-1-yl)-5-(2-(4-fluoro-2-methylbenzyl)-1,2,3,4-tetrahydroisoquinolin-6-yl)-2-methyl-6-(((pyridin-4-ylmethyl)amino)methyl)pyridin-3-yl)acetic acid], with less than 0.1 µM.

Regarding `CC[N+](CC)(CC)Cc1nc(C)c([C@H](OC(C)(C)C)C(=O)O)c(N2CCC(C)(C)CC2)c1-c1ccc2c(c1)CCN(Cc1ccc(F)cc1C)C2` [Example 125, (S)—N-((5-(tert-Butoxy(carboxy)methyl)-4-(4,4-dimethylpiperidin-1-yl)-3-(2-(4-fluoro-2-methylbenzyl)-1,2,3,4-tetrahydroisoquinolin-6-yl)-6-methylpyridin-2-yl)methyl)-N,N-diethylethanaminium], the EC50 was less than 0.1 µM (read-out: Activity) and 0.016 µM (read-out: EC50 μM). Turning to `Cc1cc(F)ccc1CN1CCc2cc(-c3c(CNCc4cccnc4)nc(C)c([C@H](OC(C)(C)C)C(=O)O)c3N3CCC(C)(C)CC3)ccc2C1` [Example 126, (S)-2-(tert-Butoxy)-2-(4-(4,4-dimethylpiperidin-1-yl)-5-(2-(4-fluoro-2-methylbenzyl)-1,2,3,4-tetrahydroisoquinolin-6-yl)-2-methyl-6-(((pyridin-3-ylmethyl)amino)methyl)pyridin-3-yl)acetic acid], the EC50 (read-out: Activity) was less than 0.1 µM. On the same count and under the same terms, to `Cc1cc(F)ccc1CN1CCc2cc(-c3c(CNCC4CCOCC4)nc(C)c([C@H](OC(C)(C)C)C(=O)O)c3N3CCC(C)(C)CC3)ccc2C1` [Example 127, (S)-2-(tert-Butoxy)-2-(4-(4,4-dimethylpiperidin-1-yl)-5-(2-(4-fluoro-2-methylbenzyl)-1,2,3,4-tetrahydroisoquinolin-6-yl)-2-methyl-6-((((tetrahydro-2H-pyran-4-yl)methyl)amino)methyl)pyridin-3-yl)acetic acid] belongs less than 0.1 µM; to `Cc1cc(F)ccc1CN1CCc2cc(-c3c(CN4CCC(F)(F)CC4)nc(C)c([C@H](OC(C)(C)C)C(=O)O)c3N3CCC(C)(C)CC3)ccc2C1` [Example 128, (S)-2-(tert-Butoxy)-2-(6-((4,4-difluoropiperidin-1-yl)methyl)-4-(4,4-dimethylpiperidin-1-yl)-5-(2-(4-fluoro-2-methylbenzyl)-1,2,3,4-tetrahydroisoquinolin-6-yl)-2-methylpyridin-3-yl)acetic acid], less than 0.1 µM.

As for `Cc1cc(F)ccc1CN1CCc2cc(-c3c(CN4CCCC(F)(F)C4)nc(C)c([C@H](OC(C)(C)C)C(=O)O)c3N3CCC(C)(C)CC3)ccc2C1` [Example 129, (S)-2-(tert-Butoxy)-2-(6-((3,3-difluoropiperidin-1-yl)methyl)-4-(4,4-dimethylpiperidin-1-yl)-5-(2-(4-fluoro-2-methylbenzyl)-1,2,3,4-tetrahydroisoquinolin-6-yl)-2-methylpyridin-3-yl)acetic acid], the EC50 (read-out: Activity) is less than 0.1 µM. For the molecule `Cc1cc(F)ccc1CN1CCc2cc(-c3c(CN4CCC(F)CC4)nc(C)c([C@H](OC(C)(C)C)C(=O)O)c3N3CCC(C)(C)CC3)ccc2C1` [Example 130, (S)-2-(tert-Butoxy)-2-(4-(4,4-dimethylpiperidin-1-yl)-5-(2-(4-fluoro-2-methylbenzyl)-1,2,3,4-tetrahydroisoquinolin-6-yl)-6-((4-fluoropiperidin-1-yl)methyl)-2-methylpyridin-3-yl)acetic acid], where the note is “read-out: Activity”, the EC50 is less than 0.1 µM. On the same count and under the same terms, to `Cc1cc(F)ccc1CN1CCc2cc(-c3c(CN4CCCC(F)C4)nc(C)c([C@H](OC(C)(C)C)C(=O)O)c3N3CCC(C)(C)CC3)ccc2C1` (stereo partly drawn) [Example 131, (2S)-2-(tert-Butoxy)-2-(4-(4,4-dimethylpiperidin-1-yl)-5-(2-(4-fluoro-2-methylbenzyl)-1,2,3,4-tetrahydroisoquinolin-6-yl)-6-((3-fluoropiperidin-1-yl)methyl)-2-methylpyridin-3-yl)acetic acid] belongs less than 0.1 µM; to `Cc1cc(F)ccc1CN1CCc2cc(-c3c(CN4CC[C@H](F)C4)nc(C)c([C@H](OC(C)(C)C)C(=O)O)c3N3CCC(C)(C)CC3)ccc2C1` [Example 132, (S)-2-(tert-Butoxy)-2-(4-(4,4-dimethylpiperidin-1-yl)-5-(2-(4-fluoro-2-methylbenzyl)-1,2,3,4-tetrahydroisoquinolin-6-yl)-6-(((S)-3-fluoropyrrolidin-1-yl)methyl)-2-methylpyridin-3-yl)acetic acid], less than 0.1 µM.

As to `Cc1cc(F)ccc1CN1CCc2cc(-c3c(CN4CC[C@@H](F)C4)nc(C)c([C@H](OC(C)(C)C)C(=O)O)c3N3CCC(C)(C)CC3)ccc2C1` [Example 133, (S)-2-(tert-Butoxy)-2-(4-(4,4-dimethylpiperidin-1-yl)-5-(2-(4-fluoro-2-methylbenzyl)-1,2,3,4-tetrahydroisoquinolin-6-yl)-6-(((R)-3-fluoropyrrolidin-1-yl)methyl)-2-methylpyridin-3-yl)acetic acid], the EC50 (read-out: Activity) is less than 0.1 µM. In the case of `Cc1cc(F)ccc1CN1CCc2cc(-c3c(CN4CCC5(CCC5)CC4)nc(C)c([C@H](OC(C)(C)C)C(=O)O)c3N3CCC(C)(C)CC3)ccc2C1` [Example 134, (S)-2-(6-(7-Azaspiro[3.5]nonan-7-ylmethyl)-4-(4,4-dimethylpiperidin-1-yl)-5-(2-(4-fluoro-2-methylbenzyl)-1,2,3,4-tetrahydroisoquinolin-6-yl)-2-methylpyridin-3-yl)-2-(tert-butoxy)acetic acid], the EC50 (read-out: Activity) was less than 0.1 µM and the EC50 (read-out: EC50 μM) came out at 0.001 µM.
